Measurements from ChEMBL document CHEMBL1130464, “Analogues of trichosatin a and trapoxin B as histone deacetylase inhibitors” (Bioorg Med Chem Lett, 1997).

What was measured:
[1] = target: T1, Histone deacetylase HD2 (Zea mays) (UniProt Q94F81)
T1 sequence (whole entry): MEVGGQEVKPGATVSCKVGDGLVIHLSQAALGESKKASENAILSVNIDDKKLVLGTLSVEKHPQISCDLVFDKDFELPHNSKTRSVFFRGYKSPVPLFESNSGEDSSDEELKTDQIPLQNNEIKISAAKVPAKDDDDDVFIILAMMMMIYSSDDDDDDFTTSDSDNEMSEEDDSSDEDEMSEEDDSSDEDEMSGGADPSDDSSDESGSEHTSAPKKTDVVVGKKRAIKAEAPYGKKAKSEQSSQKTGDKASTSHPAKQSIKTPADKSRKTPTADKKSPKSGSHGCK

[2] = target: T1, Histone deacetylase HD2 (Zea mays); experiment: Inhibitory concentration against deacetylase HD2 enzyme of maize at 30 uM

CC(/C=C/C(=O)NO)=C\[C@@H](C)C(=O)c1ccc(N(C)C)cc1
IC90 [1]: 100 nM

CN(C)c1ccc(C(=O)NCCCCCC(=O)NO)cc1
inhibition [2]: 94%

O=C(CCCCCCC(=O)N[C@@H](Cc1ccccc1)C(=O)O)NO
inhibition [2]: 82%

COC(=O)[C@H](Cc1ccccc1)NC(=O)CCCCCCC(=O)NO
inhibition [2]: 76%
